# From patent US5502068A, “Cyclopropylpyrroloindole-oligopeptide anticancer agents” (Synphar Laboratories, Inc., priority 1995, dated 1996)
# “Also recorded” adds a separate entry of the source. Like-named read-outs stand apart in the source and are kept apart here.
# Columns and labels:
# [1] = system: KB human nasopharyngeal carcinoma cells; assay: Cytotoxicity (antiproliferative effect), crystal violet staining; assay type: cell-based; settings: for IC50: Homo sapiens, KB, 72 h
# Procedure: KB human nasopharyngeal carcinoma cells, were maintained in RPMI 1640 medium supplemented with 10% fetal bovine serum. KB cells were cultured in plastic tissue culture flasks and kept in an incubator at 37° C. in humidified air containing 5% CO2. These cells were free of Mycoplasma as determined with Hoechst 33258 stain.
# The antiproliferative effect of compounds was determined using cell staining method by crystal violet.
# One hundred-μ1 cultures were established at 10^3 cells/well in 96-well tissue culture plates (Nunc, Roskilde, Denmark). After 24 h. 100 µl of the medium containing 2 times concentrated the compounds were added to the cell culture. After an additional 3 days culture, cells were fixed to 20 µl of 25% glutaraldehyde for 15 minutes and washed with water, dried and stained with 0.05% crystal violet in 20% methanol for 15 minutes. After washing with water and drying, crystal violet was extracted with 100 µl of 50 mM NaH2 PO4 /ethanol (1:1 v/v) and OD540 was measured by the multiscanphotometer (Corona, Tokyo, Japan). A linear relationship between cell number and the amount of dye binding was found over the range of cell densities observed all experiments.
# [2] = system: P388 lymphocytic leukemia cells; assay: Antitumor efficacy, i.p. P388 lymphocytic leukemia in CDF1 mice; assay type: in vivo, mouse; settings: 0.3 mg/kg ip
# Procedure: All compounds were dissolved in dimethyl sulfoxide (DMSO), diluted in sterile 0.9% NaCl solution to 5% final DMSO concentration. BALB/c X DBA/2F1 (CDF1) mice were purchased from Japan CLEA. P388 lymphocytic leukemia cells were inoculated intraperitoneally (10^6 cells) 1 day prior to treatment into 6 week-old male CDF1 mice, and compounds were injected intraperitoneally in a total volume of 0.1 ml/10g mouse body weight. Efficacy for these models was expressed as the Increase in life span (ILS) of treated mice in comparison to untreated tumor-bearing mice. Experiment was completed on day 30 after tumor inoculation, and survivor on that day was evaluated as cured animal. Time to death (mean±SD.n=9) for untreated animals was 11.5±1.2 day and for solvent treated animals was 11.7±2.1 day.
# [3] = system: DNA; assay: Site and sequence selective DNA alkylation by polyacrylamide gel electrophoresis (PAGE); assay type: biochemical
# Text: In contrast to FCE 24517, clear evidence of site and sequence selective DNA alkylation was obtained for the new CPI-oligopeptides by polyacrylamide gel electrophoresis (PAGE). […] Table 5 quantifies and compares the alkylation intensities at different sites for the CPI-oligopeptides with CC-1065. […] A detailed analysis of the frequency of occurrence of bases flanking the prominent alkylation sites for YW-052 and YW-053 compared with CC-1065 is given in Table 7.
# [4] = system: herpes viruses; settings: cited from earlier work
# [5] = in words; cited from earlier work
# [6] = Table 3, KB cells, 3 days, read-out: KB cells, toxicity TD50
structure (smiles),measurement,setting,value
CCCC(=O)Nc1cc(C(=O)N2CC3CC34C2=CC(=O)c2[nH]cc(C)c24)n(C)c1 (centres unmarked) [YW-036],IC50,"[1]; Table 4, KB cell, read-out: Cytotoxicity IC50 (KB cell)",0.47 ng/mL
same,In vivo ILS P388 (ip),"[2]; maximum ILS, P388 ip, 30 day survivors not included",24.6%
same,cure,[2]; survivors on day 30 evaluated as cured,1/7
CCCC(=O)Nc1cc(C(=O)Nc2cc(C=CC(=O)N3CC4CC45C3=CC(=O)c3[nH]cc(C)c35)n(C)c2)n(C)c1 (centres unmarked) [YW-053],"Frequency of Occurrence, base A at +1","[3]; A, position +1",27%
same,"Frequency of Occurrence, base A at +2","[3]; A, position +2",27%
same,"Frequency of Occurrence, base A at +3","[3]; A, position +3",27%
same,"Frequency of Occurrence, base A at -1","[3]; A, position -1",36%
same,"Frequency of Occurrence, base A at -2","[3]; A, position -2",45%
same,"Frequency of Occurrence, base A at -3","[3]; A, position -3",36%
same,"Frequency of Occurrence, A/T at +1","[3]; A/T, position +1",82%
same,"Frequency of Occurrence, A/T at +2","[3]; A/T, position +2",54%
same,"Frequency of Occurrence, A/T at +3","[3]; A/T, position +3",54%
same,"Frequency of Occurrence, A/T at -1","[3]; A/T, position -1",100%
same,"Frequency of Occurrence, A/T at -2","[3]; A/T, position -2",100%
same,"Frequency of Occurrence, A/T at -3","[3]; A/T, position -3",63%
same,"Frequency of Occurrence, base C at +2","[3]; C, position +2",9%
same,"Frequency of Occurrence, base C at +3","[3]; C, position +3",9%
same,"Frequency of Occurrence, base C at -3","[3]; C, position -3",10%
same,"Frequency of Occurrence, base G at +1","[3]; G, position +1",28%
same,"Frequency of Occurrence, base G at +2","[3]; G, position +2",37%
same,"Frequency of Occurrence, base G at +3","[3]; G, position +3",37%
same,"Frequency of Occurrence, base G at -3","[3]; G, position -3",27%
same,"Frequency of Occurrence, base T at +1","[3]; T, position +1",45%
same,"Frequency of Occurrence, base T at +2","[3]; T, position +2",27%
same,"Frequency of Occurrence, base T at +3","[3]; T, position +3",27%
same,"Frequency of Occurrence, base T at -1","[3]; T, position -1",64%
same,"Frequency of Occurrence, base T at -2","[3]; T, position -2",55%
same,"Frequency of Occurrence, base T at -3","[3]; T, position -3",27%
same,"Frequency of Occurrence, A* (site of alkylation)",[3]; alkylated base A*,91%
same,"Frequency of Occurrence, G* (site of alkylation)",[3]; alkylated base G*,9%
same,"Alkylation Sites (5'-3'), Moderate","[3]; moderate sites, listed as YW-53","TTAA, AATG, GATA; also recorded: ATAA, CTTA, GAAA"
same,"Alkylation Sites (5'-3'), Strong","[3]; strong sites, listed as YW-53","TTTA, TATA, GTTA; also recorded: AATA, ATAA"
CC(=O)Nc1cc(C=CC(=O)N2CC3CC34C2=CC(=O)c2[nH]cc(C)c24)n(C)c1 (centres unmarked) [YW-059],IC50,"[1]; Table 2, KB cells, 3 days, read-out: KB cells, toxicity TD50",0.00015 ng/mL
same,cytotoxic potency / anticancer activity in vitro,"[1]; human tumor KB cell line, in words","exceeding in the case of YW-059, for example, that of any other reported natural or synthetic agents; also recorded: cytotoxic potency exceeds that of any other agent, natural or synthetic, reported to date"
Cc1c[nH]c2c1C13CC1CN(C(=O)c1cc(NC(=O)CCN(C)C)cn1C)C3=CC2=O (centres unmarked) [YW-60],IC50,[1]; [6],184 ng/mL
Cc1c[nH]c2c1C13CC1CN(C(=O)c1cc(NC(=O)c4cc(NC(=O)CCN(C)C)cn4C)cn1C)C3=CC2=O (centres unmarked) [YW-61],IC50,[1]; [6],2490 ng/mL
Cc1c[nH]c2c1C13CC1CN(C(=O)c1cc(NC(=O)c4cc(NC(=O)c5cc(NC(=O)CCN(C)C)cn5C)cn4C)cn1C)C3=CC2=O (centres unmarked) [YW-62],IC50,[1]; [6],1370 ng/mL
Cc1c[nH]c2c1C13CC1CN(C(=O)c1nc(NC(=O)CCN(C)C)cn1C)C3=CC2=O (centres unmarked) [YW-63],IC50,[1]; [6],385 ng/mL
Cc1c[nH]c2c1C13CC1CN(C(=O)c1nc(NC(=O)c4nc(NC(=O)CCN(C)C)cn4C)cn1C)C3=CC2=O (centres unmarked) [YW-64],IC50,[1]; [6],2520 ng/mL
Cn1cc(NC(=O)c2cc(NC(=O)c3cc(NC=O)cn3C)cn2C)cc1C(=O)NCCC(=N)N [distamycin],therapeutic index,[4],about 3
same,cytotoxicity,[5],high cytotoxicity
